Laboratory results published in article PMC9516332 (Frontiers in Oncology, 2022).
Where two headings read alike, the source gives them in different places.

Legend:
[1] = target: panel of 255 wild-type kinases (Homo sapiens, UniProt O75116); settings: cited from earlier work
[2] = target: panel of 255 wild-type kinases (Homo sapiens, UniProt P10721); settings: cited from earlier work
[3] = target: panel of 255 wild-type kinases (Homo sapiens, UniProt P27448); settings: cited from earlier work
[4] = target: panel of 255 wild-type kinases (Homo sapiens, UniProt O43683); settings: cited from earlier work
[5] = target: panel of 255 wild-type kinases (Homo sapiens, UniProt Q00526); settings: cited from earlier work
[6] = target: panel of 255 wild-type kinases (Homo sapiens, UniProt Q15349); settings: cited from earlier work
[7] = target: panel of 255 wild-type kinases (Homo sapiens, UniProt Q9UM73); settings: cited from earlier work
[8] = target: panel of 255 wild-type kinases (Homo sapiens, UniProt P16591); settings: cited from earlier work
[9] = target: panel of 255 wild-type kinases (Homo sapiens, UniProt Q96SB4); settings: cited from earlier work
[10] = target: panel of 255 wild-type kinases (Homo sapiens, UniProt Q9Y243); settings: cited from earlier work
[11] = target: panel of 255 wild-type kinases (Homo sapiens, UniProt O95819); settings: cited from earlier work
[12] = target: panel of 255 wild-type kinases (Homo sapiens, UniProt P12931); settings: cited from earlier work
[13] = target: panel of 255 wild-type kinases (Homo sapiens, UniProt Q13557); settings: cited from earlier work
[14] = tested on: panel of 255 wild-type kinases; settings: cited from earlier work
[15] = tested on: FGFR-altered cell lines; assay: Cell viability assay, FGFR-altered versus FGFR wild-type cell lines; assay type: cell-based
[16] = kinase ROCK2, 1 µmol/L single concentration, ref DOI: 10.1158/1535-7163.MCT-18-0877
[17] = kinase KIT, 1 µmol/L single concentration, ref DOI: 10.1158/1535-7163.MCT-18-0877
[18] = MARK3, 1 µmol/L single concentration, ref DOI: 10.1158/1535-7163.MCT-18-0877
[19] = BUB1/BUB3 kinase assay, 1 µmol/L single concentration, ref DOI: 10.1158/1535-7163.MCT-18-0877
[20] = CDK3/CycE1 kinase assay, 1 µmol/L single concentration, ref DOI: 10.1158/1535-7163.MCT-18-0877
[21] = kinase RSK3, 1 µmol/L single concentration, ref DOI: 10.1158/1535-7163.MCT-18-0877
[22] = ALK kinase assay, 1 µmol/L single concentration, ref DOI: 10.1158/1535-7163.MCT-18-0877
[23] = kinase FER, 1 µmol/L single concentration, ref DOI: 10.1158/1535-7163.MCT-18-0877
[24] = kinase SRPK1, 1 µmol/L single concentration, ref DOI: 10.1158/1535-7163.MCT-18-0877
[25] = AKT3 kinase assay, 1 µmol/L single concentration, ref DOI: 10.1158/1535-7163.MCT-18-0877
[26] = kinase HGK, 1 µmol/L single concentration, ref DOI: 10.1158/1535-7163.MCT-18-0877
[27] = kinase SRC, 1 µmol/L single concentration, ref DOI: 10.1158/1535-7163.MCT-18-0877
[28] = CaMK2δ kinase assay, 1 µmol/L single concentration, ref DOI: 10.1158/1535-7163.MCT-18-0877
[29] = kinase FYN [isoform b], 1 µmol/L single concentration, ref DOI: 10.1158/1535-7163.MCT-18-0877
[30] = kinase LYNb, 1 µmol/L single concentration, ref DOI: 10.1158/1535-7163.MCT-18-0877
[31] = kinase PKCβ2, 1 µmol/L single concentration, ref DOI: 10.1158/1535-7163.MCT-18-0877
[32] = kinase SRM, 1 µmol/L single concentration, ref DOI: 10.1158/1535-7163.MCT-18-0877
[33] = kinase ROCK2, 1 µmol/L single concentration, ref DOI: 10.1371/journal.pone.0092146
[34] = kinase KIT, 1 µmol/L single concentration, ref DOI: 10.1371/journal.pone.0092146
[35] = MARK3, 1 µmol/L single concentration, ref DOI: 10.1371/journal.pone.0092146
[36] = CDK3/CycE1 kinase assay, 1 µmol/L single concentration, ref DOI: 10.1371/journal.pone.0092146
[37] = kinase RSK3, 1 µmol/L single concentration, ref DOI: 10.1371/journal.pone.0092146
[38] = kinase FER, 1 µmol/L single concentration, ref DOI: 10.1371/journal.pone.0092146
[39] = kinase SRPK1, 1 µmol/L single concentration, ref DOI: 10.1371/journal.pone.0092146
[40] = AKT3 kinase assay, 1 µmol/L single concentration, ref DOI: 10.1371/journal.pone.0092146
[41] = CaMK2δ kinase assay, 1 µmol/L single concentration, ref DOI: 10.1371/journal.pone.0092146
[42] = kinase HGK, 1 µmol/L single concentration, ref DOI: 10.1371/journal.pone.0092146
[43] = kinase SRC, 1 µmol/L single concentration, ref DOI: 10.1371/journal.pone.0092146
[44] = kinase LYNb, 1 µmol/L single concentration, ref DOI: 10.1371/journal.pone.0092146
[45] = kinase PKCβ2, 1 µmol/L single concentration, ref DOI: 10.1371/journal.pone.0092146
[46] = kinase SRM, 1 µmol/L single concentration, ref DOI: 10.1371/journal.pone.0092146
[47] = ALK kinase assay, 1 µmol/L single concentration, ref DOI: 10.1371/journal.pone.0092146

Row | SMILES | %-inhibition at 1 µmol/L, ROCK2 [1, 16] | %-inhibition, MARK3 [3, 18] | %-inhibition BUB1/BUB3 [4, 19] | %-inhibition CDK3/CycE1 [5, 20] | %-inhibition at 1 µmol/L, RSK3 [6, 21] | %-inhibition ALK [7, 22] | %-inhibition at 1 µmol/L, FER [8, 23] | %-inhibition at 1 µmol/L, SRPK1 [9, 24] | %-inhibition AKT3 [10, 25] | %-inhibition at 1 µmol/L, HGK [11, 26] | %-inhibition at 1 µmol/L, SRC [12, 27] | %-inhibition CaMK2δ [13, 28] | %-inhibition at 1 µmol/L, FYN [isoform b] [14, 29] | %-inhibition at 1 µmol/L, LYNb [14, 30] | %-inhibition at 1 µmol/L, PKCβ2 [14, 31] | %-inhibition at 1 µmol/L, ROCK2 [1, 33] | %-inhibition at 1 µmol/L, KIT [2, 34] | %-inhibition, MARK3 [3, 35] | %-inhibition at 1 µmol/L, FER [8, 38] | %-inhibition CaMK2δ [13, 41] | further results
1 | O=C(c1ccc(F)c(F)c1Nc1ccc(I)cc1F)N1CC(O)([C@@H]2CCCCN2)C1 [cobimetinib] | 3.55% | -1.51% | 6.61% | 2.16% | 8% | 5% | 4% | -11% | -3.43% | 2.27% | 6.45% | 1.1% | -0.687% | 8% | -2% |  |  |  |  |  | %-inhibition at 1 µmol/L, KIT [2, 17]: -17%; %-inhibition at 1 µmol/L, SRM [14, 32]: 1.37%
2 | CCN1CCN(c2ccc(Nc3cc(N(C)C(=O)Nc4c(Cl)c(OC)cc(OC)c4Cl)ncn3)cc2)CC1 [infigratinib] |  |  |  |  |  |  |  |  |  |  |  |  |  |  |  |  |  |  |  |  | potency in FGFR-altered cell lines compared to erdafitinib and pemigatinib ([15]; average IC50): more than three-fold lower potency; IC50 ([15]; geometric average, read-out: average IC50 in the eight FGFR-altered cell lines): 20 nM; higher potency in FGFR-altered compared to FGFR wild-type cell lines ([15]; on average, MANOVA): 130 fold
3 | CO[C@@H]1[C@H](N(C)C(=O)c2ccccc2)C[C@H]2O[C@]1(C)n1c3ccccc3c3c4c(c5c6ccccc6n2c5c31)C(=O)NC4 [midostaurin] | 38% |  | 6.4% | 11% | 98% | 87% | 101% | 1.28% |  | 97% | 79% |  |  |  |  |  |  |  |  |  | 
4 | C[C@@H](Oc1cc(-c2cnn(C3CCNCC3)c2)cnc1N)c1c(Cl)ccc(F)c1Cl [crizotinib] |  |  |  |  |  |  |  |  |  |  |  |  |  |  |  | 4.25% | 16% | 41% | 90% | 4% | %-inhibition CDK3/CycE1 [5, 36]: -5.68%; %-inhibition at 1 µmol/L, RSK3 [6, 37]: 3.34%; %-inhibition at 1 µmol/L, SRPK1 [9, 39]: 4.55%; %-inhibition AKT3 [10, 40]: -1.83%; %-inhibition at 1 µmol/L, LYNb [14]: 34%; %-inhibition at 1 µmol/L, PKCβ2 [14]: -1.6%; %-inhibition at 1 µmol/L, SRM [14]: 1.51%
5 | Cc1cc(Nc2ncc(Cl)c(Nc3ccccc3S(=O)(=O)C(C)C)n2)c(OC(C)C)cc1C1CCNCC1 [ceritinib] |  | 10% | 5.67% | -3.17% | 90% | 99% | 100% |  | -4% | 10% | 9% | 76% | -4% | 11% | 4% |  |  |  |  |  | %-inhibition at 1 µmol/L, SRM [14, 32]: 40%
6 | CC(C)(C)c1nc(-c2cccc(NS(=O)(=O)c3c(F)cccc3F)c2F)c(-c2ccnc(N)n2)s1 [dabrafenib] |  |  |  |  |  |  |  |  |  |  |  |  |  |  |  | 14% | 59% | 4% | 22% | -0.23% | %-inhibition at 1 µmol/L, HGK [11, 42]: 7%; %-inhibition at 1 µmol/L, SRC [12, 43]: 68%; %-inhibition at 1 µmol/L, LYNb [14, 44]: 86%; %-inhibition at 1 µmol/L, PKCβ2 [14, 45]: -3%; %-inhibition at 1 µmol/L, SRM [14, 46]: 100%
7 | COc1cc(N2CCC(N3CCN(C)CC3)CC2)ccc1Nc1ncc(Cl)c(Nc2ccccc2P(C)(C)=O)n1 [brigatinib] |  |  |  |  |  |  |  |  |  |  |  |  |  |  |  |  |  |  |  |  | %-inhibition at 1 µmol/L, ROCK2 [1]: 30%; %-inhibition at 1 µmol/L, KIT [2]: 51%; %-inhibition, MARK3 [3]: 99%; %-inhibition BUB1/BUB3 [4]: 14%; %-inhibition CDK3/CycE1 [5]: 0.848%; %-inhibition at 1 µmol/L, RSK3 [6]: 100%; %-inhibition ALK [7]: 100%; %-inhibition at 1 µmol/L, FER [8]: 102%; %-inhibition at 1 µmol/L, SRPK1 [9]: 4%; %-inhibition AKT3 [10]: -0.864%; %-inhibition at 1 µmol/L, HGK [11]: 18%; %-inhibition at 1 µmol/L, SRC [12]: 65%; %-inhibition CaMK2δ [13]: 101%; %-inhibition at 1 µmol/L, FYN [isoform b] [14]: 56%; %-inhibition at 1 µmol/L, LYNb [14]: 43%; %-inhibition at 1 µmol/L, PKCβ2 [14]: 31%; %-inhibition at 1 µmol/L, SRM [14]: 92%
8 | CCCS(=O)(=O)Nc1ccc(F)c(C(=O)c2c[nH]c3ncc(-c4ccc(Cl)cc4)cc23)c1F [vemurafenib] |  |  |  |  |  |  |  |  |  |  |  |  |  |  |  | -0.177% | 58% | -0.226% | 11% | -0.235% | %-inhibition CDK3/CycE1 [5, 36]: -4.34%; %-inhibition at 1 µmol/L, RSK3 [6, 37]: -0.497%; %-inhibition ALK [7, 47]: 1.14%; %-inhibition at 1 µmol/L, SRPK1 [9, 39]: 2%; %-inhibition AKT3 [10, 40]: -0.678%; %-inhibition at 1 µmol/L, HGK [11, 42]: 26%; %-inhibition at 1 µmol/L, SRC [12, 43]: 52%; %-inhibition at 1 µmol/L, LYNb [14, 44]: 62%; %-inhibition at 1 µmol/L, PKCβ2 [14, 45]: -3%; %-inhibition at 1 µmol/L, SRM [14, 46]: 102%
9 | CCc1cc2c(cc1N1CCC(N3CCOCC3)CC1)C(C)(C)c1[nH]c3cc(C#N)ccc3c1C2=O [alectinib] | 4.54% | 9% | 2% | -2.74% |  |  | 66% | 83% | -0.889% | 20% | 10% | 37% | 12% | 15% | 0.0492% |  |  |  |  |  | %-inhibition at 1 µmol/L, KIT [2, 17]: 0.373%; %-inhibition at 1 µmol/L, SRM [14, 32]: 41%
10 | CC(=O)Nc1cccc(-n2c(=O)n(C3CC3)c(=O)c3c(Nc4ccc(I)cc4F)n(C)c(=O)c(C)c32)c1 [trametinib] |  |  |  |  |  |  |  |  |  |  |  |  |  |  |  | 3% | -0.648% | -3.21% | 4.28% | -2.19% | %-inhibition CDK3/CycE1 [5, 36]: 0.16%; %-inhibition at 1 µmol/L, RSK3 [6, 37]: -5%; %-inhibition ALK [7, 47]: -2.82%; %-inhibition at 1 µmol/L, SRPK1 [9, 39]: -0.0691%; %-inhibition AKT3 [10, 40]: -5.3%; %-inhibition at 1 µmol/L, HGK [11, 42]: -3.71%; %-inhibition at 1 µmol/L, SRC [12, 43]: -5.4%; %-inhibition at 1 µmol/L, LYNb [14, 44]: -2.58%; %-inhibition at 1 µmol/L, PKCβ2 [14, 45]: -1.58%; %-inhibition at 1 µmol/L, SRM [14, 46]: -4%
